This assay deals with T1, RIPK1 (receptor-interacting serine/threonine-protein kinase 1) (Homo sapiens, UniProt Q13546).
T1 sequence (Q13546 1-671): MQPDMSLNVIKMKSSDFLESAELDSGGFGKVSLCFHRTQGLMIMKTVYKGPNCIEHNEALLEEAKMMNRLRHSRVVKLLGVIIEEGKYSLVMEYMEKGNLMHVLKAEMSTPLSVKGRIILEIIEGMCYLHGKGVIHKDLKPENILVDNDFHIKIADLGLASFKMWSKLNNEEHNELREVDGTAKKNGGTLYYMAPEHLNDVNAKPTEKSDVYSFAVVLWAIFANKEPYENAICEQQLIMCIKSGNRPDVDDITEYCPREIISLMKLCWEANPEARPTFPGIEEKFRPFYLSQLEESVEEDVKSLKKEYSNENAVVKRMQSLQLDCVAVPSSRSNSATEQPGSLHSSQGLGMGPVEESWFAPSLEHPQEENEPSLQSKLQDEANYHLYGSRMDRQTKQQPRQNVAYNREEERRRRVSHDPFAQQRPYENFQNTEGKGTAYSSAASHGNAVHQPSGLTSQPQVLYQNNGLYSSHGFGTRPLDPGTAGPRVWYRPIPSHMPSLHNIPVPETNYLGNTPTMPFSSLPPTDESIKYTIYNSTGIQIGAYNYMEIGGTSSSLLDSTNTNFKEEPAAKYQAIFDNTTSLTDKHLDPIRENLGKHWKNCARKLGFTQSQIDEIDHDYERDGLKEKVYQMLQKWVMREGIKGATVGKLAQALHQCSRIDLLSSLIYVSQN
As to the kind of experiment: ADP-Glo kinase assay with recombinant human RIPK1 ([…]). In kind it is biochemical. (In general: In ADP-Glo the light output rises with the ADP produced.)

A word on the IC50: it is the point on the concentration scale where inhibition reaches its midpoint.

`Cc1ccc(F)c(NC(=O)Nc2ccc(-c3cccc4[nH]nc(N)c34)cc2)c1` [linifanib]: the half-inhibitory concentration (IC50) came out at 670 nM.

For the origin of these results see paper PMC9913023, “Repositioning linifanib as a potent anti-necroptosis agent for sepsis” (Cell Death Discovery, 2023).
